Tests used:
EAE [1] = assay: Dose response study of oral Copolymer-1 in rats (EAE); format: in vivo; settings: for Mean Score ±SD: PBS control 1.32±0.64; for Incidence: PBS control 10/11; for Mean Onset: PBS control 13.1; for Suppression* (%): calculated by mean score
Protocol: Rats were immunized with 25 µg of GPBP emulsified 1:1 in CFA containing 4 mg/ml. H37Ra. The emulsion at a total volume of 0.1 ml. was injected into the two hindfoot pads.
(§1) Animals were examined daily from day 10 post induction for signs of disease. EAE was scored as follows: 0-no disease, 1-limp tail, 2-hind limb paralysis, 3-paralysis of all four limbs, 4-moribund condition, 5-death.
Rats were fed with 1 mg GPBP or glatiramer acetate dissolved in PBS by gastric intubation using a sterile feeding tube (Uno Plast, Denmark). Rats were fed 5 times (total dose of 5 mg) before disease induction at intervals of 2-3 days. EAE was induced two days after the last feeding. Control mice and rats were mock fed with PBS.
Rats were fed 5 times with 0.5, 1 or 2 mg glatiramer acetate according to the established protocol (see Materials and Methods, above) and then challenged for EAE induction.

EAE [2] = assay: Induction of EAE in Rhesus monkeys, oral enteric-coated capsules, clinical scoring (Example 3); format: in vivo
Protocol: Glatiramer acetate was provided by Teva Pharmaceutical Industries Ltd. in an enteric-coated hard gelatin capsule comprising two dosage levels: 1 mg of glatiramer acetate and 20 mg of glatiramer acetate. Each dosage level was formulated using mannitol, and coated with Eudragit L30D55. Placebo or control capsules comprised capsules containing 5 mg of sugar.
(§2) 3 Rhesus monkeys were treated as follows: One monkey served as control and was fed with placebo capsules (containing 5mg glucose only). The second and third monkeys were fed with glatiramer acetate containing capsules at a dose of 1mg/feeding and 20mg/feeding, respectively. Animals were fed every other day for a total of 10 feedings: 5 times prior to disease induction (immunization on day 0) and then 5 times after immunization.
(§3) Disease was induced on day 0 by an intradermal injection of 8mg bovine - MBP and 3 mg H37Ra M. tuberculosis in FCA into the hind footpads, total injected volume between 0.1 and 0.15 ml per footpad. The animals were followed for clinical manifestations of EAE, a variety of serum and CSF immunological markers and spinal cord and cranial MRI's.

[3] = tested on: T-cell line derived from spleens of glatiramer acetate fed rats; assay: Proliferation assay of T-cell line from spleens of fed rats; format: cell-based; settings: rat line cultured with glatiramer acetate as antigen (Figure 6)
Protocol: Isolation of glatiramer acetate specific T cell lines - Lewis rats were fed 5 times with 1 mg glatiramer acetate and (SJUJ x BALB/c)F, mice 7 times with 250 µg glatiramer acetate, at intervals of 2-3 days. Four to twelve days after the last feeding animals were sacrificed and their spleens removed.
Spleen cells of 3 animals were pooled and incubated (50 x 10^6/plate) with glatiramer acetate (500 µg) in medium containing 1 % autologous serum for 4 days. Every 14-21 days cells (4-6 x 10^6/plate) were restimulated by 3 days exposure to copolymer-1 (500 µg) presented on syngeneic irradiated (3000 rad) rat thymocytes (100 x 10^6/plate) or mouse splenocytes (50 x 10^6/plate). Stimulation was followed by propagation in 10% supernatant of Con A activated normal mouse spleen cells as T cell growth factor (TCGF).
Proliferation Assay - T cell lines (1 x 10^4 cells) were cultured with irradiated (3000R) thymocytes (rat-1 x 10^6) or splenocytes (mouse- 5 x 10^5) and with the indicated antigens (10 µg glatiramer acetate; 1 µg Con A) in a final volume of 0.2 ml in microtiter plates. At the end of 48 hours incubation cultures were pulsed with ^3H-thymidine and harvested 6-12 hours later.

PBL = assay: Flow cytometry of peripheral blood lymphocytes (PBL); format: in vivo, Rhesus Monkeys; set-up: CD4+ / CD8+ / CD4+ CD45RA+ / CD8+ CD45RA+: unit not given here; settings: for Ratio: CD4+/CD8+
Protocol: as §2, §3
The Epics C flow cytometer was used to analyze both peripheral blood lymphocytes (PBL) and cerebral spinal fluid (CSF) collected from each monkey. The red blood cells were lysed and the remaining white blood cells (WBCs) were washed and stained using standard methods with appropriate reagents. Tables 3 and 4 below show the data from staining PBL and CSF WBCs from the three animals in this Example.

EAE [4] = assay: Suppression of MSCH-induced EAE in mice by oral administration, dose response; format: in vivo, (SJL/JxBALB/c)F1 mice; settings: days -7 to 6 (Figure 5)
Protocol: as §1
Induction of EAE - (SJL/xBALB/c)F1 mice were injected in all four footpads with 2mg mouse spinal cord homogenated (MSCH) emulsified in 1:1 ratio in CFA containing 1 mg/ml H37Ra (Difco Lab, Detroit, Mich). Pertussis toxin (250 ng/mouse, Sigma) was twice injected intravenously, once immediately after and again 48 hours later.
(SJL/JxBALB/c)F1 mice were fed 7 times with 0.1, 0.25 or 0.5 mg glatiramer acetate on days -7; -5; -3; 0; 2; 4 and 6 by gastric intubation. EAE was induced on day 0 by the injection of MSCH.

[5] = animal 18497, 1mg/dose, day +13
[6] = animal 18497, 1mg/dose, day +20
[7] = animal 18497, 1mg/dose, day +27
[8] = animal 18498, 20 mg/dose, day +6
[9] = animal 18498, 20 mg/dose, day +13
[10] = animal 18498, 20 mg/dose, day +20
[11] = animal 18498, 20 mg/dose, day +27
[12] = animal 18498, 20 mg/dose, day -1

glatiramer acetate
Mean Score ±SD (EAE [1]; rats fed 5 times 0.5 mg): 0.95±0.57
Incidence (EAE [1]; rats fed 5 times 0.5 mg): 9/11
Mean Onset (EAE [1]; rats fed 5 times 0.5 mg): 13.5
Suppression* (%) (EAE [1]; rats fed 5 times 0.5 mg): 28%
Mean Score ±SD (EAE [1]; rats fed 5 times 1 mg): 0.64±0.50
Incidence (EAE [1]; rats fed 5 times 1 mg): 7/11
Mean Onset (EAE [1]; rats fed 5 times 1 mg): 15.1
Suppression* (%) (EAE [1]; rats fed 5 times 1 mg): 51%
Mean Score ±SD (EAE [1]; rats fed 5 times 2 mg): 0.91±0.70
Incidence (EAE [1]; rats fed 5 times 2 mg): 8/11
Mean Onset (EAE [1]; rats fed 5 times 2 mg): 13.1
Suppression* (%) (EAE [1]; rats fed 5 times 2 mg): 31%
day of first (minimal) symptoms (EAE [2]; animal 18497, 1mg/feeding, 10 feedings): 25 days
time until clinical signs dropped to zero (EAE [2]; animal 18497, after day 33 fed 20mg capsules 5 times on alternate days, remained zero until day 60): ≤ 3 days
clinical symptoms (EAE [2]; animal 18498, 20mg/feeding, 10 feedings, 60 day observation period, placebo animal score 4+ , sacrificed day 28): did not show any significant clinical symptoms
proliferation response of T-cell line [3]: proliferated in response to glatiramer acetate
Ratio (PBL; animal 18497, 1mg/dose, day +6): 1.26
Ratio (PBL; [5]): 1.09
Ratio (PBL; [6]): 1.28
Ratio (PBL; [7]): 1.3
Ratio (PBL; animal 18497, 1mg/dose, day -1): 0.97
Ratio (PBL; [8]): 0.88
Ratio (PBL; [9]): 0.89
Ratio (PBL; [10]): 0.47
Ratio (PBL; [11]): 0.71
Ratio (PBL; [12]): 0.93
CD4+ (PBL; animal 18497, 1mg/dose, day +6): 39
CD4+ CD45RA+ (PBL; animal 18497, 1mg/dose, day +6): 24
CD8+ (PBL; animal 18497, 1mg/dose, day +6): 31
CD8+ CD45RA+ (PBL; animal 18497, 1mg/dose, day +6): 29
CD4+ (PBL; [5]): 37
CD4+ CD45RA+ (PBL; [5]): 16
CD8+ (PBL; [5]): 34
CD8+ CD45RA+ (PBL; [5]): 29
CD4+ (PBL; [6]): 41
CD4+ CD45RA+ (PBL; [6]): 18
CD8+ (PBL; [6]): 32
CD8+ CD45RA+ (PBL; [6]): 25
CD4+ (PBL; [7]): 35
CD4+ CD45RA+ (PBL; [7]): 12
CD8+ (PBL; [7]): 27
CD8+ CD45RA+ (PBL; [7]): 18
CD4+ (PBL; animal 18497, 1mg/dose, day -1): 35
CD4+ CD45RA+ (PBL; animal 18497, 1mg/dose, day -1): 21
CD8+ (PBL; animal 18497, 1mg/dose, day -1): 36
CD8+ CD45RA+ (PBL; animal 18497, 1mg/dose, day -1): 33
CD4+ (PBL; [8]): 37
CD4+ CD45RA+ (PBL; [8]): 23
CD8+ (PBL; [8]): 42
CD8+ CD45RA+ (PBL; [8]): 32
CD4+ (PBL; [9]): 41
CD4+ CD45RA+ (PBL; [9]): 24
CD8+ (PBL; [9]): 46
CD8+ CD45RA+ (PBL; [9]): 37
CD4+ (PBL; [10]): 27
CD4+ CD45RA+ (PBL; [10]): 12
CD8+ (PBL; [10]): 57
CD8+ CD45RA+ (PBL; [10]): 41
CD4+ (PBL; [11]): 37
CD4+ CD45RA+ (PBL; [11]): 22
CD8+ (PBL; [11]): 52
CD8+ CD45RA+ (PBL; [11]): 41
CD4+ (PBL; [12]): 37
CD4+ CD45RA+ (PBL; [12]): 23
CD8+ (PBL; [12]): 40
CD8+ CD45RA+ (PBL; [12]): 32
suppression of EAE (EAE [4]; mice fed 7 times 0.1 mg): most effective dose
suppression of EAE (EAE [4]; mice fed 7 times 0.25 mg): less effective
suppression of EAE (EAE [4]; mice fed 7 times 0.5 mg): completely inactive
